Laboratory results published in US20150056195A1, “COMPOSITIONS AND METHODS FOR INIHIBITING TUMORIGENICITY OF SENESCENT CANCER CELLS INDUCED BY CHEMOTHERAPY” (INSERM (INSTITUT NATIONAL DE LA SANTE ET DE LA RECHERCHE …, priority 2013, published 2015).

Tests used:
melanoma cell lines [1] = assay: Western blot of MITF, ECAD, FN1, NANOG, OCT4; format: cell-based, human; details: three melanoma cell lines exposed 48 hrs to secretome of cells rendered senescent by the drug (temozolomide 900 nM, fotemustine 40 nM)
Protocol: (§1) Western blots were carried out as previously described^48. Briefly, cell lysates (30 μg) were separated by SDS-PAGE, transferred on to a PVDF membrane and then exposed to the appropriate primary and HRP-linked secondary antibodies. Proteins were visualized with the ECL system (Amersham). The western blots shown are representative of at least 3 independent experiments.

melanoma cell lines [2] = assay: Cell counting and cell death; format: cell-based, human; details: 501mel and other melanoma cells
STAT3 = assay: Western blot of STAT3, ERK and AKT signaling; format: cell-based, human; details: 501mel; for AKT and ERK phosphorylation / STAT3 activation (tyr705-phosphorylation): IL6 20 ng/ml or CCL2 200 ng/ml; for STAT3 activation (tyr705-phosphorylation): time course
Protocol: as §1

501mel melanoma cells [3] = assay: Xenograft tumor model in athymic nude mice; format: in vivo; details: cells exposed in vitro 48 hrs or transfected, then 4x10^6 cells/mouse subcutaneously
Protocol: Mice were randomly divided into 3 groups of 6 mice. 501mel melanoma cells were transfected with control (siC) or STAT3 (siSTAT3) siRNA and were exposed in vitro to the secretome of senescent melanoma cells (SSMC) or to recombinant CCL2 (200 ng/ml) or IL6 (20 ng/ml) for 48 hrs, washed twice with phosphate-buffered saline and then inoculated subcutaneously (4×10^6 cells/mouse) into 6-week-old female immune-deficient Athymic Nude FOXN1^nu mice (Harlan Laboratory). The growth tumor curves were determined by measuring the tumor volume using the equation V=(L×W2)/2. Mice were killed by CO2 inhalation and tumors were taken.

501mel melanoma cells [4] = assay: qRT-PCR of mesenchymal, stemness and MITF transcripts; format: cell-based, human; details: IL6 20 ng/ml, mRNA and protein levels
Protocol: mRNA isolation was performed with Trizol (Invitrogen), according to standard procedure. QRT-PCR was carried out with SYBR® Green I and Multiscribe Reverse Transcriptase (Promega) and monitored by an ABI Prism 7900 Sequence Detection System (Applied Biosystems, Foster City, Calif.). Detection of SB34 gene was used to normalize the results. Primer sequences for each cDNA were designed using either Primer Express Software (Applied Biosystems) or qPrimer depot (http://primerdepot.nci.nih.gov) and are available upon request.

501mel cells [5] = assay: Flow cytometry of MITF content (low-MITF population); format: cell-based, human; details: IL6 20 ng/ml, 48 hrs; control 2
501mel cells [6] = assay: CFSE labeling, number of cell divisions by FACS; format: cell-based, human; details: IL6 20 ng/ml, 72 hrs; control 5.65
Protocol: For the in vitro CFSE assay, cells were labeled with 2 μmol/l of CFSE according to the manufacturer's protocol (Invitrogen), then plated and treated with the secretome of control (SCMC) or senescent melanoma cells (SSMC) or recombinant IL6 (20 ng/ml). Cells were detached and analyzed by flow cytometry using MACSQuant (Miltenyi biotech). Cells were exposed to control (Cont) or senescent secretome (SSMC). Seventy-two hours later, cells were detached in phosphate-buffered saline/EDTA 2 mM and stained with DAPI to exclude dead cells. Fluorescence was measured by using the FL1/FL2 channels of a MACSQuant. Data were analyzed with MACSQuant software (Miltenyi biotech).

## CCOP(=O)(OCC)C(C)NC(=O)N(CCCl)N=O (stereo not drawn) [fotemustine]
Melanoma cell lines [1]
  E-Cadherin and MITF protein level: decrease
  expression of Fibronectin1: increased expression

## CN[C@@H]1C[C@H]2O[C@@](C)([C@@H]1OC)n1c3ccccc3c3c4c(c5c6ccccc6n2c5c31)C(=O)NC4 [staurosporine]
Melanoma cell lines [2]
  cell death: positive control

## CCL2: recombinant human CCL2 from R&D Systems, used at 200 ng/ml
STAT3; CCL2 200 ng/ml
  time of maximum STAT3 phosphorylation: 60 min
STAT3
  AKT and ERK phosphorylation: no or very weak stimulation
  STAT3 activation (tyr705-phosphorylation): dramatic increase
501mel melanoma cells [3]
  tumor formation of xenografted 501mel cells: gave rise to tumors

## IL6: recombinant human IL6 from R&D Systems, used at 20 ng/ml
501mel melanoma cells [4]
  NANOG and OCT4 expression: enhanced
  amount of MITF: reduced
501mel cells [5]
  low-MITF population: 7%
501mel cells [6]
  percentage of cells that underwent 0/1 division: 18.3%
STAT3; IL6 20 ng/ml
  time to rapid and robust STAT3 phosphorylation: ≤ 5 min
STAT3
  AKT and ERK phosphorylation: no or very weak stimulation
  STAT3 activation (tyr705-phosphorylation): dramatic increase
501mel melanoma cells [3]
  tumor formation of xenografted 501mel cells: gave rise to tumors
